Measurements from US12441695B2, “Substituted thiadiazinone dioxide and preparation method therefor, herbicidal composition, and application therefor” (Qingdao Kingagroot Chemical Compound Co., Ltd., priority 2019, dated 2025).

Legend:
[1] = system: monocotyledonous and dicotyledonous weeds; assay: Experiment on weeding effect in post-emergence stage (weeds); assay type: in vivo; conditions: 600 g/ha active ingredient plus water 450 kg/ha, 3 weeks after application, fresh weight control rate; for Amaranthus retroflexus activity level (growth control rate): fomesafen-resistant Amaranthus retroflexus
From the text: The activity level criteria for plant damage (i.e., growth control rate) are as follows: • Level 5: growth control rate is above 85%; • Level 4: growth control rate is greater than or equal to 60% and less than 85%; • Level 3: growth control rate is greater than or equal to 40% and less than 60%; • Level 2: growth control rate is greater than or equal to 20% and less than 40%; • Level 1: growth control rate is greater than or equal to […]; • Level 0: growth control rate is less than 5%.
(§1) The above growth control rates are fresh weight control rates.
(§2) (1) Experiment on weeding effect in post-emergence stage: monocotyledonous and dicotyledonous weed seeds and major crop seeds (wheat, corn, rice, soybean, cotton, oilseed rape, millet, sorghum) were placed in plastic pots filled with soil, then covered with 0.5-2 cm of soil, allowed to grow in a good greenhouse environment. After 2-3 weeks of sowing, the test plants were treated. The tested compounds of the present invention were respectively dissolved in acetone, then added with Tween 80, diluted with a certain amount of water to obtain a solution with a certain concentration, and sprayed with a spray tower onto the plants. After the application, the plants were cultured for 3 weeks in the greenhouse, and then the experimental results of the weeding were listed in Table 2.

[2] = system: major crops (wheat, corn, rice, soybean, cotton, oilseed rape, millet, sorghum); assay: Experiment on weeding effect in post-emergence stage (crops); assay type: in vivo; conditions: 600 g/ha active ingredient plus water 450 kg/ha, 3 weeks after application; for corn plant damage level (growth control rate): crop corn; for rice plant damage level (growth control rate): crop rice; for soybean plant damage level (growth control rate): crop soybean
Description: as §1
as §2, with “plants.” for “plants. After the application, the plants were cultured for 3 weeks in the greenhouse, and then the experimental results of the weeding were listed in Table 2.”

Structure (SMILES)	Amaranthus retroflexus activity level (growth control rate) [1]	Digitaria sanguinalis activity level (growth control rate) [1]	Echinochloa crus-galli activity level (growth control rate) [1]	Setaria viridis activity level (growth control rate) [1]	corn plant damage level (growth control rate) [2]	rice plant damage level (growth control rate) [2]	soybean plant damage level (growth control rate) [2]
CC(=O)N1c2c(F)cc(F)cc2C(=O)N(C(C)C)S1(=O)=O [Compound 150]	5 (Level 5: growth control rate is above 85%)	5 (Level 5: growth control rate is above 85%)	5 (Level 5: growth control rate is above 85%)	5 (Level 5: growth control rate is above 85%)	1 (Level 1: growth control rate is greater than or equal to 500 and less than 200%)	1 (Level 1: growth control rate is greater than or equal to 500 and less than 200%)	1 (Level 1: growth control rate is greater than or equal to 500 and less than 200%)
CC(C)N1C(=O)c2cc(F)c(F)cc2NS1(=O)=O [Compound 146]	5 (Level 5: growth control rate is above 85%)	4 (Level 4: growth control rate is greater than or equal to 60% and less than 85%)	5 (Level 5: growth control rate is above 85%)	5 (Level 5: growth control rate is above 85%)	1 (Level 1: growth control rate is greater than or equal to 500 and less than 200%)	0 (Level 0: growth control rate is less than 5%)	1 (Level 1: growth control rate is greater than or equal to 500 and less than 200%)
CCOC(=O)OC(C)N1c2c(Br)cc(F)cc2C(=O)N(C(C)C)S1(=O)=O (stereo not drawn) [Compound 155]	5 (Level 5: growth control rate is above 85%)	5 (Level 5: growth control rate is above 85%)	5 (Level 5: growth control rate is above 85%)	5 (Level 5: growth control rate is above 85%)	0 (Level 0: growth control rate is less than 5%)	0 (Level 0: growth control rate is less than 5%)	1 (Level 1: growth control rate is greater than or equal to 500 and less than 200%)
CC(C)N1C(=O)c2cc(Cl)ccc2NS1(=O)=O [A, reference compound]	1 (Level 1: growth control rate is greater than or equal to 500 and less than 200%)	1 (Level 1: growth control rate is greater than or equal to 500 and less than 200%)	1 (Level 1: growth control rate is greater than or equal to 500 and less than 200%)	2 (Level 2: growth control rate is greater than or equal to 20% and less than 40%)	0 (Level 0: growth control rate is less than 5%)	0 (Level 0: growth control rate is less than 5%)	0 (Level 0: growth control rate is less than 5%)
CC(C)N1C(=O)c2cc(F)cc(F)c2NS1(=O)=O [Compound 142]	5 (Level 5: growth control rate is above 85%)	5 (Level 5: growth control rate is above 85%)	5 (Level 5: growth control rate is above 85%)	5 (Level 5: growth control rate is above 85%)	1 (Level 1: growth control rate is greater than or equal to 500 and less than 200%)	1 (Level 1: growth control rate is greater than or equal to 500 and less than 200%)	1 (Level 1: growth control rate is greater than or equal to 500 and less than 200%)
CCCOC(=O)N1c2c(F)cc(F)cc2C(=O)N(C(C)C)S1(=O)=O [Compound 218]	5 (Level 5: growth control rate is above 85%)	–	4 (Level 4: growth control rate is greater than or equal to 60% and less than 85%)	5 (Level 5: growth control rate is above 85%)	0 (Level 0: growth control rate is less than 5%)	1 (Level 1: growth control rate is greater than or equal to 500 and less than 200%)	–
CC(C)OC(=O)OC(C)N1c2ccc(F)cc2C(=O)N(C(C)C)S1(=O)=O (racemic) [Compound 193]	4 (Level 4: growth control rate is greater than or equal to 60% and less than 85%)	–	–	–	0 (Level 0: growth control rate is less than 5%)	0 (Level 0: growth control rate is less than 5%)	0 (Level 0: growth control rate is less than 5%)
CC(=O)N1c2ccc(F)cc2C(=O)N(C(C)C)S1(=O)=O [Compound 62]	5 (Level 5: growth control rate is above 85%)	–	3 (Level 3: growth control rate is greater than or equal to 40% and less than 60%)	3 (Level 3: growth control rate is greater than or equal to 40% and less than 60%)	0 (Level 0: growth control rate is less than 5%)	0 (Level 0: growth control rate is less than 5%)	0 (Level 0: growth control rate is less than 5%)
CCOC(=O)OC(C)N1c2c(F)cc(F)cc2C(=O)N(C(C)C)S1(=O)=O (stereo not drawn) [Compound 151]	5 (Level 5: growth control rate is above 85%)	5 (Level 5: growth control rate is above 85%)	5 (Level 5: growth control rate is above 85%)	5 (Level 5: growth control rate is above 85%)	1 (Level 1: growth control rate is greater than or equal to 500 and less than 200%)	1 (Level 1: growth control rate is greater than or equal to 500 and less than 200%)	1 (Level 1: growth control rate is greater than or equal to 500 and less than 200%)
CC(C)N1C(=O)c2cccc(F)c2NS1(=O)=O [D, reference compound]	2 (Level 2: growth control rate is greater than or equal to 20% and less than 40%)	1 (Level 1: growth control rate is greater than or equal to 500 and less than 200%)	1 (Level 1: growth control rate is greater than or equal to 500 and less than 200%)	2 (Level 2: growth control rate is greater than or equal to 20% and less than 40%)	0 (Level 0: growth control rate is less than 5%)	0 (Level 0: growth control rate is less than 5%)	1 (Level 1: growth control rate is greater than or equal to 500 and less than 200%)
CC(C)N1C(=O)c2cc(F)ccc2N(C(C)OC(=O)OC2CCCCC2)S1(=O)=O (racemic) [Compound 194]	4 (Level 4: growth control rate is greater than or equal to 60% and less than 85%)	–	–	–	0 (Level 0: growth control rate is less than 5%)	0 (Level 0: growth control rate is less than 5%)	0 (Level 0: growth control rate is less than 5%)
CCCC(C)N1C(=O)c2cc(F)ccc2NS1(=O)=O (stereo not drawn) [Compound 163]	3 (Level 3: growth control rate is greater than or equal to 40% and less than 60%)	–	–	–	–	0 (Level 0: growth control rate is less than 5%)	–
CC(C)N1C(=O)c2cc(F)cc(Br)c2N(C(=O)C2CC2)S1(=O)=O [Compound 199]	5 (Level 5: growth control rate is above 85%)	–	–	5 (Level 5: growth control rate is above 85%)	0 (Level 0: growth control rate is less than 5%)	1 (Level 1: growth control rate is greater than or equal to 500 and less than 200%)	–
CC(C)N1C(=O)c2cc(F)ccc2N(C(=O)C2CC2)S1(=O)=O [Compound 184]	5 (Level 5: growth control rate is above 85%)	3 (Level 3: growth control rate is greater than or equal to 40% and less than 60%)	–	3 (Level 3: growth control rate is greater than or equal to 40% and less than 60%)	1 (Level 1: growth control rate is greater than or equal to 500 and less than 200%)	–	–
